Like-named read-outs stand apart in the source and are kept apart here.
Experiments:
[1] = test system: panel of approximately 60 cancer cell lines; experiment: NCI-60 screen (SRB, 48 h), full panel; conditions: for Positive Cytostatic Effect (cell lines with percent growth 0 to 50 / total) / Positive Cytotoxic Effect (cell lines with percent growth < 0 / total) / number of cancer cell lines the compound was active against: 1 dose 10 µM; for activity at 10 µM: Homo sapiens, 48 h
MCF-7 (breast carcinoma) = experiment: SRB cytotoxicity assay, 72 h; format: cell-based, human; conditions: Homo sapiens, MCF7; MCF-7, 72 h, cut-off 30 µM; read-out: EC50
Method: (§1) The cytotoxicity of compounds 1–20 was evaluated by means of a colorimetric sulforhodamine B (SRB) assay. For all compounds, the EC50 values were determined for the human tumor cell lines A375 (malignant melanoma), HT29 (colorectal carcinoma), MCF-7 (breast carcinoma), A2780 (ovarian carcinoma), FaDu (hypopharyngeal carcinoma), and NIH 3T3 (non-malignant mouse fibroblasts).
(§2) In short, exponentially growing cells were seeded into 96-well plates on day 0 at the appropriate cell densities to prevent confluence of the cells during the period of experiment. After 24 h, the cells were treated with serial dilutions of the compounds (0–30 µM) for 72 h. The final concentration of DMSO never exceeded 0.5%, which was non-toxic to the cells. After a 72 h treatment, the supernatant medium from the 96-well plates was discarded, and the cells were fixed with 10% TCA. For a thorough fixation, the plates were allowed to rest at 4 °C. After fixation, the cells were washed in a strip washer. The washing was done four times with water using alternate dispensing and aspiration procedures. The plates were then dyed with 100 µL of 0.4% SRB for about 20 min. After dying, the plates were washed with 1% acetic acid to remove the excess of the dye and allowed to air-dry overnight. Tris base solution (200 µL, 10 mM) was added to each well and absorbance was measured at λ = 570 nm (using a 96 well plate reader, Tecan Spectra, Crailsheim, Germany). The percentages of surviving cells relative to untreated controls were determined.

[2] = test system: FaDu (hypopharyngeal carcinoma); experiment: SRB cytotoxicity assay, 72 h; format: cell-based, human; conditions: Homo sapiens, cut-off 30 µM, read-out: EC50
Method: as §1, §2

[3] = test system: HT29 (colorectal carcinoma); experiment: SRB cytotoxicity assay, 72 h; format: cell-based, human; conditions: Homo sapiens, HT-29; HT29, 72 h, cut-off 30 µM; read-out: EC50
Method: as §1, §2

[4] = test system: A375 (malignant melanoma); experiment: SRB cytotoxicity assay, 72 h; format: cell-based, human; conditions: A375, 72 h, cut-off 30 µM, read-out: EC50
Method: as §1, §2

[5] = test system: A2780 (ovarian carcinoma); experiment: SRB cytotoxicity assay, 72 h; format: cell-based, human; conditions: Homo sapiens; A2780, 72 h, cut-off 30 µM; read-out: EC50
Method: as §1, §2

[6] = test system: NIH 3T3 (non-malignant mouse fibroblasts); experiment: SRB cytotoxicity assay, 72 h; format: cell-based; conditions: Mus musculus, NIH3T3; NIH 3T3, 72 h, cut-off 30 µM; read-out: EC50
Method: as §1, §2

SR (Leukemia) = experiment: NCI-60 screen (SRB, 48 h); format: cell-based; conditions: 1 dose 10 µM
HT29 (Colon cancer) = experiment: NCI-60 screen (SRB, 48 h); conditions: HT29, 1 dose 10 µM
CAKI-1 (Renal cancer) [7] = experiment: NCI-60 screen (SRB, 48 h); conditions: CAKI-1, 1 dose 10 µM
[8] = test system: MDA-MB-31/ATCC (Breast cancer); set-up: method as in earlier work; conditions: cited from earlier work
SNB-75 (CNS cancer) = test system: SNB-75 (CNS cancer); set-up: method as in earlier work; conditions: cited from earlier work
MALME-3M (Melanoma) = test system: MALME-3M (Melanoma); set-up: method as in earlier work; conditions: cited from earlier work
MDA-MB-435 (Melanoma) = test system: MDA-MB-435 (Melanoma); set-up: method as in earlier work; conditions: cited from earlier work
[9] = test system: NCI-H460 (NSC lung cancer); set-up: method as in earlier work; conditions: cited from earlier work
RPMI-8226 (Leukemia) = test system: RPMI-8226 (Leukemia); set-up: method as in earlier work; conditions: cited from earlier work
[10] = test system: NCI-H23 (NSC lung cancer); set-up: method as in earlier work; conditions: cited from earlier work
[11] = test system: NCI-H522 (NSC lung cancer); set-up: method as in earlier work; conditions: cited from earlier work
HOP-62 (NSC lung cancer) = test system: HOP-62 (NSC lung cancer); set-up: method as in earlier work; conditions: cited from earlier work
CAKI-1 (Renal cancer) [12] = test system: CAKI-1 (Renal cancer); set-up: method as in earlier work; conditions: cited from earlier work
HOP-92 (NSC lung cancer) = test system: HOP-92 (NSC lung cancer); set-up: method as in earlier work; conditions: cited from earlier work
MCF7 (Breast cancer) = test system: MCF7 (Breast cancer); set-up: method as in earlier work; conditions: cited from earlier work
SF-539 (CNS cancer) = test system: SF-539 (CNS cancer); set-up: method as in earlier work; conditions: cited from earlier work
HCC-2998 (Colon cancer) = test system: HCC-2998 (Colon cancer); set-up: method as in earlier work; conditions: cited from earlier work
OVCAR-3 (Ovarian cancer) = test system: OVCAR-3 (Ovarian cancer); set-up: method as in earlier work; conditions: cited from earlier work
[13] = test system: NCI-H226 (NSC lung cancer); set-up: method as in earlier work; conditions: cited from earlier work
[14] = test system: panel of approximately 60 cancer cell lines; set-up: method as in earlier work; conditions: standard drugs; read-out: GI50 MG_MID60; cited from earlier work

For `CC1(C)CC[C@]2(C(=O)NC(CO)Cc3ccccc3)CC[C@]3(C)C(=CC[C@@H]4[C@@]5(C)CCCNC(C)(C)[C@@H]5CC[C@]43C)[C@@H]2C1` (some centres unmarked) [Compound 13], the “Positive Cytostatic Effect (cell lines with percent growth 0 to 50 / total)” value [1] was 10/60, the “Positive Cytotoxic Effect (cell lines with percent growth < 0 / total)” value [1] was 1/60 and the “number of cancer cell lines the compound was active against” value (shortened to “number”) [1] was 6 cell lines. It also gave an activity at 10 µM ([1]; read-out: Mean Growth, %) of 74.9%, an activity at 10 µM ([1]; read-out: Range of Growth, %) of -5.95 to 107% and an EC50 (MCF-7 (breast carcinoma)) of 2.82 ± 0.3 µM. It also gave an EC50 [2] of 3.79 ± 0.3 µM, an EC50 [3] of 2.07 ± 0.1 µM and an EC50 ([4]; Homo sapiens, A-375, 72 h) of 3.08 ± 0.1 µM. For the same molecule, the EC50 [5] was 4.15 ± 0.2 µM, the EC50 [6] was 3.08 ± 0.3 µM and the “Growth % of the Most Sensitive Cell Lines” value (from here on “Growth %”) (SR (Leukemia)) was −5.95%.
With `CC(=O)[C@@H]1CC[C@]2(CO)CC[C@]3(C)[C@H](CC[C@@H]4[C@@]5(C)CCCNC(C)(C)[C@@H]5CC[C@]43C)[C@@H]12` [Compound 2, azepanomessagenin] the “Positive Cytostatic Effect (cell lines with percent growth 0 to 50 / total)” value [1] was 0/59, the “number” value [1] was “did not show antiproliferative activity” and the activity at 10 µM ([1]; read-out: Mean Growth, %) was 99.2%. The activity at 10 µM ([1]; read-out: Range of Growth, %) was 68.1 to 136%, the EC50 (MCF-7 (breast carcinoma)) was 5.78 ± 0.7 µM and the EC50 [2] was 6.21 ± 1.2 µM. The EC50 [3] was 6.32 ± 0.4 µM, the EC50 [4] was 7.82 ± 0.3 µM and the EC50 ([4]; Homo sapiens, A-375, 72 h) was 7.92 µM. The EC50 [5] was 7.71 ± 0.4 µM, the EC50 [6] was 8.03 ± 1.4 µM and the “Growth %” value (HT29 (Colon cancer)) was 68.07%.
With `CC1(C)NCCC[C@]2(C)[C@H]3CC(=O)[C@H]4[C@@H]5C[C@@](C)(CO)CC[C@]5(C)CC[C@@]4(C)[C@]3(C)CC[C@@H]12` [Compound 17] the “Positive Cytostatic Effect (cell lines with percent growth 0 to 50 / total)” value [1] was 0/59, the “Positive Cytotoxic Effect (cell lines with percent growth < 0 / total)” value [1] was 0/59 and the “number” value [1] was “complete loss of cytotoxic activity”. The activity at 10 µM ([1]; read-out: Mean Growth, %) was 95.5%, the activity at 10 µM ([1]; read-out: Range of Growth, %) was 51.6 to 118% and the EC50 (MCF-7 (breast carcinoma)) was 5.55 ± 0.6 µM. For the same molecule, the EC50 [2] was 6.36 ± 1.8 µM, the EC50 [3] was 5.01 ± 0.8 µM and the EC50 ([4]; Homo sapiens, A-375, 72 h) was 6.35 ± 0.5 µM. For the same molecule, the EC50 [5] was 9.19 ± 0.5 µM, the EC50 [6] was 9.87 ± 1.3 µM and the “Growth %” value (CAKI-1 (Renal cancer) [7]) was 51.57%.
In the case of `O=c1[nH]cc(F)c(=O)[nH]1` [Compound 5-FU, 5-fluorouracil], the GI50 [8] is given as 6.6 µM, the GI50 (SNB-75 (CNS cancer)) is given as 78.7 µM and the GI50 (MALME-3M (Melanoma)) is given as 0.05 µM. The GI50 (MDA-MB-435 (Melanoma)) was 0.07 µM, the GI50 [9] was 0.05 µM and the GI50 (RPMI-8226 (Leukemia)) was 0.04 µM. For the same molecule, the GI50 [10] was 0.33 µM, the GI50 [11] was 7.27 µM and the GI50 (HOP-62 (NSC lung cancer)) was 0.39 µM. The GI50 (CAKI-1 (Renal cancer) [12]) was 0.07 µM, the GI50 (HOP-92 (NSC lung cancer)) was 77.9 µM and the GI50 (MCF7 (Breast cancer)) was 0.07 µM. For the same molecule, the GI50 (SF-539 (CNS cancer)) was 0.06 µM, the GI50 (HCC-2998 (Colon cancer)) was 0.05 µM and the GI50 (OVCAR-3 (Ovarian cancer)) was 0.01 µM. For the same molecule, the GI50 [13] was 54.7 µM and the GI50 [14] was 6.97 µM.

Reference: article PMC7914897, “Cytotoxic Potential of a-Azepano- and 3-Amino-3,4-SeCo-Triterpenoids” (International Journal of Molecular Sciences, 2021)
